From patent publication US6346201B1, “Ozonated solutions of tetrasilver tetroxide” (priority 2000, dated 2002)
Read-outs that look alike come from different tables or passages of the source.

Key:
[1] = Procedure: Ozone concentrations were measured by a chemical oxidation of indigo dye by using an indigo dye […] manufactured by HACH, Inc.
6.1 mg/L (6.1 ppm) of ozone was provided in deionized, distilled water over a 15 minute period. The solution was allowed to stand with stirring by a magnetic stirrer over a 24-hour period, taking periodic readings of the ozone concentration.

[2] = test system: Bacillus subtilis spores; experiment: Bacillus subtilis spore survival by MALS, AODC and 24-hour CFU count; assay type: cell-based
Procedure: The efficacy of ozone in the absence of tetrasilver tetroxide was evaluated by challenging Bacillus subtilis spores with 2 ppm ozone and measuring the survival rate over time by MALS, acridine orange direct counts (AODC) and by counting colony forming units (CFU) at 24 hours.
Bacillus subtilus spore suspensions in water were challenged with 2 ppm tetrasilver tetroxide and […] ozone to evaluate the killing efficacy of the combination. The survival rate over time was measured by MALS, AODC and counting colony forming units at 24 hours.

[3] = test system: P. aeruginosa; experiment: Ozone kill of P. aeruginosa test culture; assay type: cell-based; conditions: 3.2 ppm ozone, 1 minute
Procedure: (§1) Ozone is, of course, effective against enteric pathogens. For example, adding 3.2 ppm 03 to a test culture kills 1.95×10^6 cells/mL of E. coli in 1 minute and kills 1.5×10^6 cells/mL of P. aeruginosa in 1 minute.

[4] = test system: E. coli; experiment: Ozone kill of E. coli test culture; assay type: cell-based; conditions: 3.2 ppm ozone, 1 minute
Procedure: as §1

[5] = test system: E. coli K12; conditions: 10 ppm or less tetrasilver tetroxide, within 30 minutes, other studies; cited from earlier work
[6] = B. subtilis spores, 2 ppm ozone, treatment time 0
[7] = B. subtilis spores, 2 ppm ozone, treatment time 5
[8] = B. subtilis spores, 2 ppm ozone, treatment time 10
[9] = B. subtilis spores, 2 ppm ozone, treatment time 15
[10] = B. subtilis spores, 2 ppm ozone, treatment time 20
[11] = B. subtilis spores, 2 ppm ozone, treatment time 30

O=[O+][O-] [ozone]
ozone at 18 hours relative to that expected in the absence of tetrasilver tetroxide ([1]; 2 ppm tetrasilver tetroxide added, 18 hours): approximately an order of magnitude higher
ozone concentration ([1]; 2 ppm tetrasilver tetroxide added, after 18 hours): 0.12 ppm
ozone oxidizing activity ([1]; 2 ppm tetrasilver tetroxide added, by 24 hours): 0.03 ppm
half-life of ozone ([1]; 6.1 ppm ozone initially in deionized, distilled water, no tetrasilver tetroxide): approximately 2 hours
ozone concentration ([1]; 6.1 ppm ozone initially in deionized, distilled water, stirred, by 2 hours): 3 ppm
ozone concentration ([1]; 6.1 ppm ozone initially in deionized, distilled water, stirred, by 18 hours): 0.01 ppm
MALS log intensity vs time of exposure (FIG. 1) ([2]; B. subtilis spores, 2 ppm ozone, increasing time of exposure): reduction in the log intensity
24-Hour Count [2, 6]: 2.10 × 10^6 cfu/mL
24-Hour Count % AODC [2, 6]: 100 % AODC
24-Hour Count % control [2, 6]: 100 % control
AODC [2, 6]: 2.34 × 10^6 spores/mL
AODC % control [2, 6]: 100 % control
MALS % control [2, 6]: 100 % control
MALS intensity [2, 6]: 2436.6
24-Hour Count [2, 7]: 1.23 × 10^6 cfu/mL
24-Hour Count % AODC [2, 7]: 76.9 % AODC
24-Hour Count % control [2, 7]: 58.5 % control
AODC [2, 7]: 1.6 × 10^6 spores/mL
AODC % control [2, 7]: 68.3 % control
MALS % control [2, 7]: 65.33 % control
MALS intensity [2, 7]: 1591.92
24-Hour Count [2, 8]: 1.68 × 10^5 cfu/mL
24-Hour Count % AODC [2, 8]: 14.5 % AODC
24-Hour Count % control [2, 8]: 8.0 % control
AODC [2, 8]: 1.16 × 10^6 spores/mL
AODC % control [2, 8]: 49.5 % control
MALS % control [2, 8]: 51.89 % control
MALS intensity [2, 8]: 1264.26
24-Hour Count [2, 9]: 1.80 × 10^3 cfu/mL
24-Hour Count % AODC [2, 9]: 0.14 % AODC
24-Hour Count % control [2, 9]: 0.09 % control
AODC [2, 9]: 1.29 × 10^6 spores/mL
AODC % control [2, 9]: 55.1 % control
MALS % control [2, 9]: 42.67 % control
MALS intensity [2, 9]: 1039.64
24-Hour Count [2, 10]: 1.82 × 10^2 cfu/mL
24-Hour Count % AODC [2, 10]: 0.04 % AODC
24-Hour Count % control [2, 10]: 0.009 % control
AODC [2, 10]: 4.87 × 10^5 spores/mL
AODC % control [2, 10]: 20.8 % control
MALS % control [2, 10]: 34.94 % control
MALS intensity [2, 10]: 851.5
24-Hour Count [2, 11]: 10 cfu/mL
24-Hour Count % AODC [2, 11]: 0.002 % AODC
24-Hour Count % control [2, 11]: 0.00005 % control
AODC [2, 11]: 5.03 × 10^5 spores/mL
AODC % control [2, 11]: 21.5 % control
MALS % control [2, 11]: 27.96 % control
MALS intensity [2, 11]: 681.2
antimicrobial effect (MALS graph, FIG. 3) ([2]; twenty-minute treatment with 0.3 ppm ozone): significant killing effect
cells killed [3]: 1.5×10^6 cells/mL
cells killed [4]: 1.95×10^6 cells/mL

[Ag+].[Ag+].[Ag+].[Ag+].[O-2].[O-2].[O-2].[O-2] [tetrasilver tetroxide]
measurable oxidation as measured by the indigo dye method ([1]; without ozone): neither
antimicrobial effect (MALS graph, FIG. 3) ([2]; sixty-minute treatment with 2 ppm tetrasilver tetroxide): little more effective than the untreated control
kills % of E. coli K12 strain [5]: 100%
